From PubChem BioAssay AID1549 (Sanford-Burnham Center for Chemical Genomics, 2009)
The source made the active and inactive calls. The rule behind the calls is not given here.

Target: Influenza A virus M2 proton channel (A/TW/4845/1999 H1N1)
Test: M2 proton channel binding, NMR based, influenza A virus H1N1 strain (AID 1549)
Details: NMR binding screen, M2 protein

N=c1n(N)c2ccccc2n1CCO
Kd: > 4 mM (inactive)

O=C1c2ccccc2C(=O)N1OCc1ccccc1
Kd: > 4 mM (inactive)

c1ccc(Cc2nnc3sc(-c4ccccn4)nn23)cc1
Kd: > 4 mM (inactive)

CC(=O)Nc1nc(C)nc(-c2ccccc2)c1C(C)=O
Kd: > 4 mM (inactive)

O=C1CNC(=O)N1Cc1ccc(Br)cc1
Kd: > 4 mM (inactive)

CC(=O)Nc1ccn(-c2ccccc2)n1
Kd: > 4 mM (inactive)

O=C(O)CNC(=O)c1ccccc1
Kd: > 4 mM (inactive)

NCCCCN
Kd: > 4 mM (inactive)

Cc1c(C(=O)Nn2cnnc2)oc2ccccc12
Kd: > 4 mM (inactive)

O=c1c(O)c(-c2ccc(O)c(O)c2)oc2cc(O)ccc12
Kd: > 4 mM (inactive)

OCc1ccc(-n2cncn2)cc1
Kd: > 4 mM (inactive)

COc1ccc([C@@H]2CC(=O)c3c(O)cc(O[C@@H]4O[C@H](CO[C@H]5O[C@@H](C)[C@H](O)[C@@H](O)[C@H]5O)[C@@H](O)[C@H](O)[C@H]4O)cc3O2)cc1O
Kd: > 4 mM (inactive)

O=C(O)CCn1cncn1
Kd: > 4 mM (inactive)

Nc1ccc(C(=O)NCC2CCCO2)cc1 (stereo not given)
Kd: > 4 mM (inactive)

Cc1ccccc1NC(=O)CC1SC(N)=NC1=O (stereo not given)
Kd: > 4 mM (inactive)

Nc1cc(=O)[nH]c(SCC(=O)NC2CCCCC2)n1
Kd: > 4 mM (inactive)

CCC(=O)OC1[C@@H]2CC3=C4CC(=O)O[C@@H](c5ccoc5)[C@]4(C)CCC3C(C)(C2=O)[C@@H](CC(=O)OC)C1(C)C (stereo not given in full)
Kd: > 4 mM (inactive)

Nc1ccccc1-c1nc2ccccc2[nH]1
Kd: > 4 mM (inactive)

Cc1c(/C=N/O)cnn1C
Kd: > 4 mM (inactive)

Cc1c(-c2ccccc2)[n+](=O)c(-c2ccco2)c(C)n1[O-]
Kd: > 4 mM (inactive)

O=C(Nc1ccc(-c2nnco2)cc1)c1ccccc1
Kd: > 4 mM (inactive)

O=C(O[C@@H]1Cc2c(O)cc(O)cc2O[C@@H]1c1cc(=O)c(O)c2c(O)c(O)cc([C@H]3Oc4cc(O)cc(O)c4C[C@H]3O)c2c1)c1cc(O)c(O)c(O)c1
Kd: > 4 mM (inactive)

OCc1cccc2c1OCO2
Kd: > 4 mM (inactive)

COc1ccc(C[C@H]2NC[C@H](O)[C@H]2OC(C)=O)cc1
Kd: > 4 mM (inactive)

O=C(NCc1cccc(Cl)c1)c1cnccn1
Kd: > 4 mM (inactive)

Nc1ccn(C2O[C@H](CO)[C@@H](O)[C@H]2O)c(=O)n1 (stereo not given in full)
Kd: > 4 mM (inactive)

CC(=O)Nc1ccc(-c2ccc3nncn3n2)cc1
Kd: > 4 mM (inactive)

Nc1cccc(CC(=S)N2CCOCC2)c1
Kd: > 4 mM (inactive)

O=c1[nH]c(=O)c2[nH]cnc2[nH]1
Kd: > 4 mM (inactive)

CCN1CCn2c1nc(N1CCOCC1)nc2=O
Kd: > 4 mM (inactive)

CC(=O)Nc1ccc(N2C(=O)C=CC2=O)cc1C
Kd: > 4 mM (inactive)

Cc1ccc(N2C(=O)CCC2=O)cc1
Kd: > 4 mM (inactive)

CC1(C)O[C@H]2CC(=O)OC[C@]23[C@H]2CC[C@@]4(C)[C@H](c5ccoc5)OC(=O)[C@H]5O[C@]54[C@]2(C)C(=O)C[C@@H]13
Kd: > 4 mM (inactive)

CC(=O)Nc1sccc1C(N)=O
Kd: > 4 mM (inactive)

O=C(O)CCCNC(=O)c1ccccc1C(=O)O
Kd: > 4 mM (inactive)

O=C(NN=C1CCCC1)c1ccncc1
Kd: > 4 mM (inactive)

NC(=O)Nc1cccc(C(F)(F)F)c1
Kd: > 4 mM (inactive)

COc1ccc(C(=O)NC2=NCCS2)cc1OC
Kd: > 4 mM (inactive)

CN(C)S(=O)(=O)c1cccc(N)c1
Kd: > 4 mM (inactive)

CC(=O)Nc1ccc(NC(=O)c2ccnn2C)cc1
Kd: > 4 mM (inactive)

[O-][n+]1onc2c1CCc1c-2nn(-c2ccccc2)[n+]1[O-]
Kd: > 4 mM (inactive)

O=C1c2ccccc2C(=O)c2c1ccc(O)c2O
Kd: > 4 mM (inactive)

O=C(c1cccc(C(F)(F)F)c1)N1CCCC1
Kd: > 4 mM (inactive)

CC(=O)Oc1ccc(-c2nc(-c3cccnc3)no2)cc1
Kd: > 4 mM (inactive)

Cn1c(CO)nc2ccccc21
Kd: > 4 mM (inactive)

CCN1CCc2c(sc(N)c2C(N)=O)C1
Kd: > 4 mM (inactive)

CN1CCOc2cc(C(=O)O)ccc21
Kd: > 4 mM (inactive)

CCc1nnsc1C(=O)Nc1nccs1
Kd: > 4 mM (inactive)

CCn1nnc(NC(=O)c2ccccc2Br)n1
Kd: > 4 mM (inactive)

CCn1c(=O)cc(N2CCC3(CC2)OCCO3)[nH]c1=O
Kd: > 4 mM (inactive)

O=C(O)c1cccc(O)c1O
Kd: > 4 mM (inactive)

N#CCSc1nc2ccccc2c(=O)n1-c1ccccc1
Kd: > 4 mM (inactive)

Cc1c(C(=O)Nc2cnccn2)oc2ccccc12
Kd: > 4 mM (inactive)

Nc1ccncc1
Kd: > 4 mM (inactive)

Cc1c(C)[n+]([O-])c(-c2ccc([N+](=O)[O-])cc2)n1O
Kd: > 4 mM (inactive)

COc1ccc2c(C)cc(=O)oc2c1
Kd: > 4 mM (inactive)

O=CN1CCN(C(=O)c2ccc(F)cc2)CC1
Kd: > 4 mM (inactive)

O=C1CCC(=O)N1c1ccc(O)cc1
Kd: > 4 mM (inactive)

Nc1cc(C(=O)O)ccc1N1CCCCCC1
Kd: > 4 mM (inactive)

COc1cc2c(cc1OC)[C@@H]1C(=O)c3ccc4c(c3O[C@@H]1CO2)C=CC(C)(C)O4
Kd: > 4 mM (inactive)

COc1ccccc1NC(=O)/C=N/O
Kd: > 4 mM (inactive)

Cc1ccc(C)c(C(=O)n2cnnc2N)c1
Kd: > 4 mM (inactive)

CC(=O)O[C@H]1C[C@@H](OC(C)=O)C(C)(C)C2C[C@@H](O)[C@]3(C)C(CC[C@@]4(C)[C@H](c5ccoc5)OC(=O)[C@H]5O[C@]543)[C@]21C (stereo not given in full)
Kd: > 4 mM (inactive)

CCn1c(C)c(C(C)=O)c(N2CCN(C)CC2)nc1=S
Kd: > 4 mM (inactive)

O=C1CCCCCN1CO
Kd: > 4 mM (inactive)

CCCNC(=O)c1cnc2n(c1=O)CCS2
Kd: > 4 mM (inactive)

Cc1c(C(=O)Nc2ccncc2)oc2c1C(=O)CC(C)(C)C2
Kd: > 4 mM (inactive)

O=C(Nn1cnnc1)c1csc2c1CCCC2
Kd: > 4 mM (inactive)

CC(=O)Nc1c(Cl)cnn(-c2ccccc2)c1=O
Kd: > 4 mM (inactive)

CC(=O)Nc1ccc(S(=O)(=O)NC(N)=O)cc1
Kd: > 4 mM (inactive)

O=C(Nc1ccon1)c1sc2cc(F)ccc2c1Cl
Kd: > 4 mM (inactive)

O=C(Cn1cncn1)c1ccc(F)c(F)c1
Kd: > 4 mM (inactive)

NC(=O)CSc1ccc(-c2ccco2)nn1
Kd: > 4 mM (inactive)

CC(C)NC(=S)NCc1cnn(C)c1
Kd: > 4 mM (inactive)

CN1CCN(C(=O)c2ccccc2C(=O)O)CC1
Kd: > 4 mM (inactive)

COc1ccc2[nH]cc(CCN(C)C)c2c1
Kd: > 4 mM (inactive)

CC(=O)n1nc(-c2cccnc2)nc1N
Kd: > 4 mM (inactive)

Nc1ccc(-n2cccn2)cc1
Kd: > 4 mM (inactive)

O=C1CNc2cc(C(=O)O)ccc2N1
Kd: > 4 mM (inactive)

O=C(O)C1CCN(S(=O)(=O)c2cccs2)CC1
Kd: > 4 mM (inactive)

CN(C)S(=O)(=O)NCc1ccc2c(c1)OCO2
Kd: > 4 mM (inactive)

Cc1occc1C(=O)Nc1nnc(C2CCCCC2)s1
Kd: > 4 mM (inactive)

NN1C(=O)CSC1=Nc1ccccc1
Kd: > 4 mM (inactive)

Cc1cc(NC(=O)c2ccc3c(c2)OCCO3)no1
Kd: > 4 mM (inactive)

O=C(O)c1ccc2snnc2c1
Kd: > 4 mM (inactive)

O=c1ccn(Cc2ccccc2)c(=O)[nH]1
Kd: > 4 mM (inactive)

NC1CSCC1O (stereo not given)
Kd: > 4 mM (inactive)

NCC(=O)c1ccccc1
Kd: > 4 mM (inactive)

Cn1nc(C(C)(C)C)cc1N
Kd: > 4 mM (inactive)

CN(C)C(=O)C12CCC(C)(C(=O)O1)C2(C)C (stereo not given)
Kd: > 4 mM (inactive)

COc1c(O)cc2c(c1O)[C@H]1O[C@H](CO)[C@@H](O)[C@H](O)[C@@H]1OC2=O
Kd: > 4 mM (inactive)

CC(=O)OC1CCC2(C)C3CC(=O)C4(C)C(CC5OC6(CCC(C)CO6)[C@@H](C)C54)C3CC[C@H]2C1 (stereo not given in full)
Kd: > 4 mM (inactive)

CC(=O)Nc1cccc(-c2nc3ccccc3c(=O)o2)c1
Kd: > 4 mM (inactive)

Nc1ccc(CN2CCS(=O)(=O)CC2)cc1
Kd: > 4 mM (inactive)

Brc1cccc(-c2nnco2)c1
Kd: > 4 mM (inactive)

CCC(CO)NC(=O)c1snnc1C (stereo not given)
Kd: > 4 mM (inactive)

c1ccc(-n2nnnc2-n2cnc3ccccc32)cc1
Kd: > 4 mM (inactive)

COc1cc2c(cc1O)[C@@H](Cc1ccc(O)cc1)[N+](C)(C)CC2
Kd: > 4 mM (inactive)

CCCCCC1C(=O)CCC1CC(=O)OC (stereo not given)
Kd: > 4 mM (inactive)

COc1ccc2c(=O)c(OC)c(-c3ccccc3)oc2c1
Kd: > 4 mM (inactive)

CCOc1ccc(N2C(=O)CCC2=O)cc1
Kd: > 4 mM (inactive)

O=C(Nc1ccccc1)N1CCOCC1
Kd: > 4 mM (inactive)

C[C@@H]1OC(O[C@H]2[C@H](OC(=O)[C@]34CCC(C)(C)CC3C3=CCC5[C@@]6(C)CC[C@H](OC7O[C@@H](C)[C@H](O[C@@H]8OC[C@@H](O)[C@H](O)[C@H]8O)[C@@H](O)[C@H]7O)C(C)(C)C6CC[C@@]5(C)[C@]3(C)CC4O)OC[C@H](O)[C@H]2O)[C@H](O)[C@H](O)[C@H]1O[C@@H]1O[C@H](CO)[C@@H](O)[C@H](O)[C@H]1O (stereo not given in full)
Kd: > 4 mM (inactive)

Cc1nnc2sc(-c3csc4c3CCCC4)nn12
Kd: > 4 mM (inactive)

CN1CCC(NC(=O)c2cnccn2)CC1
Kd: > 4 mM (inactive)

Clc1ncc2[nH]cnc2n1
Kd: > 4 mM (inactive)

Nc1ccc2[nH]ccc2c1
Kd: > 4 mM (inactive)

CC(C)(C(N)=O)/[N+]([O-])=C\c1ccccc1
Kd: > 4 mM (inactive)

CCN1CCc2c(sc(N)c2C#N)C1
Kd: > 4 mM (inactive)

COc1cc2c3cc1Oc1c(OC)c(OC)cc4c1[C@@H](Cc1cccc(c1)Oc1ccc(c(O)c1)C[C@@H]3N(C)CC2)N(C)CC4
Kd: > 4 mM (inactive)

CC1/C(=N/O)C[C@@H]2C[C@H]1C2(C)C (stereo not given in full)
Kd: > 4 mM (inactive)

c1ccc2c(c1)[nH]c1cnccc12
Kd: > 4 mM (inactive)

CC12CNCC(C)(CNC1)C2O (stereo not given)
Kd: > 4 mM (inactive)

Nc1nnc(SCc2cccnc2)s1
Kd: > 4 mM (inactive)

COc1ccc(-c2coc3cc(OC(C)=O)cc(OC(C)=O)c3c2=O)cc1
Kd: > 4 mM (inactive)
